Results as given in patent US12528816B2, “Substituted imidazo [1,2-b] pyridazines and [1, 2, 4] triazolo [ 4,3-b] pyridazines as camkii inhibitors” (Cardurion Pharmaceuticals, INC., priority 2020, dated 2026).

target: T1, human CaMKIIδ (Homo sapiens, UniProt Q13557); test: Evaluation of in vitro CaMKII inhibitory activity (binding assay, TR-FRET); conditions: human CaMKIIδ, TR-FRET binding assay; class symbols A/B/C; read-out: Act (CaMKII inhibitory activity, binding assay)
T1 construct: Full-length, glutathione-S-transferase(GST)-tagged, human CaMKIIδ was purchased from Carna Biosciences; purchased Carna Biosciences (CaMKIIδ); Wako Pure Chemical Industries (calmodulin) 02-111
Outline: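 Inhibitors, in eight concentrations of 4-fold dilution, were incubated 1 h at room temperature with a protein–fluorescent probe premix preformed 30 min on ice, containing calmodulin and terbium anti-GST antibody. Displacement read by TR-FRET in duplicate; IC50 by logistic fitting.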

Structure (SMILES) | IC50 [nM]
C[C@@H](Cn1cnnn1)Oc1cc(-c2ccn3ncc(-c4cccc(F)c4C#N)c3n2)ccc1F [compound 154] | < 10
C[C@@H](Cn1cnnn1)Oc1cc(-c2ccn3ncc(-c4cccc(F)c4C(N)=O)c3n2)ccc1F [compound 155] | 10 to 100
C[C@@H](Cn1cnnn1)Oc1cc(-c2ccn3ncc(-c4cncc(C#N)c4)c3n2)ccc1F [compound 156] | < 10
C[C@@H](Cn1cnnn1)Oc1cc(-c2ccn3ncc(-c4cc(F)ccc4C#N)c3n2)ccc1F [compound 157] | < 10
C[C@@H](Cn1cnnn1)Oc1cc(-c2ccn3ncc(-c4cc[nH]n4)c3n2)ccc1F [compound 158] | < 10
C[C@@H](Cn1cnnn1)Oc1cc(-c2ccc3ncn(-c4cccc(C#N)n4)c3n2)ccc1F [compound 159] | < 10
C[C@@H](Cn1cnnn1)Oc1cc(-c2ccn3ncc(-c4ccn(CCN5CCOCC5)n4)c3n2)ccc1F [compound 160] | < 10
C[C@@H](Cn1cnnn1)Oc1cc(-c2ccn3ncc(-c4ccn(CC#N)n4)c3n2)ccc1F [compound 161] | < 10
C[C@@H](Cn1cnnn1)Oc1cc(-c2ccn3ncc(-c4ccsc4C#N)c3n2)ccc1F [compound 162] | < 10
C[C@@H](Cn1cnnn1)Oc1cc(-c2ccn3ncc(-c4cnn(C)c4C#N)c3n2)ccc1F [compound 163] | < 10
C[C@@H](Cn1cnnn1)Oc1cc(-c2ccn3ncc(-c4cn(C)nc4C#N)c3n2)ccc1F [compound 164] | < 10
C[C@@H](Cn1cnnn1)Oc1cccc(-c2ccn3ncc(-c4cccc(C(=O)NS(=O)(=O)C5CC5)c4)c3n2)c1 [compound 165] | < 10
COc1ncccc1-c1cnn2ccc(-c3ccc(F)c(O[C@@H](C)Cn4cnnn4)c3)nc12 [compound 166] | < 10
C[C@@H](Cn1cnnn1)Oc1cc(-c2ccn3ncc(-c4ccc[nH]c4=O)c3n2)ccc1F [compound 167] | < 10
CNC(=O)c1ccc(C#N)c(-c2cnc3ccc(-c4ccc(F)c(O[C@@H](C)Cn5cnnn5)c4)nn23)c1 [compound 168] | < 10
COCOc1cccc(-c2cnc3ccc(-c4ccc(F)c(O[C@@H](C)Cn5cnnn5)c4)nn23)c1C#N [compound 169] | < 10
C[C@@H](Cn1cnnn1)Oc1cc(-c2ccc3ncc(-c4cccc(O)c4C#N)n3n2)ccc1F [compound 170] | < 10
C[C@@H](Cn1cnnn1)Oc1cc(-c2ccc3ncc(-c4cccc(OCCCN5CCOCC5)c4C#N)n3n2)ccc1F [compound 171] | < 10
COCCCOc1cccc(-c2cnc3ccc(-c4ccc(F)c(O[C@@H](C)Cn5cnnn5)c4)nn23)c1C#N [compound 172] | < 10
COc1ncccc1-n1cnc2ccc(-c3ccc(F)c(O[C@@H](C)Cn4cnnn4)c3)nc21 [compound 174] | 10 to 100
C[C@@H](Cn1cnnn1)Oc1cc(-c2ccc3ncn(-c4ccc[nH]c4=O)c3n2)ccc1F [compound 175] | 10 to 100
C[C@@H](Cn1cnnn1)Oc1cc(-c2ccc3ncn(-c4cccn(C)c4=O)c3n2)ccc1F [compound 176] | 10 to 100
C[C@@H](Cn1cnnn1)Oc1cc(-c2ccc3ncc(-c4cccc(OCC#N)c4C#N)n3n2)ccc1F [compound 177] | < 10
C[C@@H](Cn1cnnn1)Oc1cc(-c2ccc3ncc(-c4cccc(OC5CCNC5=O)c4C#N)n3n2)ccc1F (stereo partly shown) [compound 178] | < 10
COC(=O)c1cccc(-n2cnc3ccc(-c4ccc(F)c(O[C@@H](C)Cn5cnnn5)c4)nc32)c1C#N [compound 179] | 10 to 100

Structure (SMILES) | IC50 [nM]
COCCNc1cccc(-c2cnn3ccc(-c4ccc(F)c(O[C@@H](C)Cn5cnnn5)c4)nc23)c1C#N [compound 180] | < 10
C[C@@H](Cn1cnnn1)Oc1cc(-c2ccc3ncc(-c4cccc(N)c4C#N)n3n2)ccc1F [compound 181] | < 10
COCCC(=O)Nc1cccc(-c2cnc3ccc(-c4ccc(F)c(O[C@@H](C)Cn5cnnn5)c4)nn23)c1C#N [compound 182] | < 10
C#Cc1ccccc1-c1cnc2ccc(-c3ccc(F)c(O[C@@H](C)Cn4cnnn4)c3)nn12 [compound 183] | < 10
C[C@@H](Cn1cnnn1)Oc1cc(-c2ccc3ncc(-c4cc(C(N)=O)ccc4C(N)=O)n3n2)ccc1F [compound 184] | > 100
C[C@@H](Cn1cnnn1)Oc1cc(-c2ccc3ncc(-c4cc(C#N)ccc4C#N)n3n2)ccc1F [compound 185] | < 10
C[C@@H](Cn1cnnn1)Oc1cc(-c2ccc3ncc(-c4cccc(C#N)c4C#N)n3n2)ccc1F [compound 186] | < 10
C[C@@H](Cn1cnnn1)Oc1cc(-c2ccc3ncc(-c4cc(Br)cc5c4OCC5)n3n2)ccc1F [compound 187] | < 10
COC(=O)c1cccc(-n2cnc3ccc(-c4ccc(F)c(O[C@@H](C)Cn5cnnn5)c4)nc32)n1 [compound 188] | < 10
C[C@@H](Cn1cnnn1)Oc1cc(-c2ccc3ncn(-c4cccc(C(=O)O)c4C#N)c3n2)ccc1F [compound 189] | 10 to 100
C=Cc1ccccc1-c1cnc2ccc(-c3ccc(F)c(O[C@@H](C)Cn4cnnn4)c3)nn12 [compound 190] | < 10
C[C@@H](Cn1cnnn1)Oc1cc(-c2ccc3ncc(-c4cccc(N=S(C)(C)=O)c4C#N)n3n2)ccc1F [compound 191] | < 10
COCCN1C(=O)c2cccc(-n3cnc4ccc(-c5ccc(F)c(O[C@@H](C)Cn6cnnn6)c5)nc43)c2C1=O [compound 192] | > 100
C[C@@H](Cn1cnnn1)Oc1cc(-c2ccc3ncn(-c4cccc5c4C(=O)N(C)C5=O)c3n2)ccc1F [compound 193] | > 100
C[C@@H](Cn1cnnn1)Oc1cc(-c2ccc3ncc(-c4cccnc4N)n3n2)ccc1F [compound 194] | 10 to 100
CC(Cn1cnnn1)Oc1cc(-c2ccc3ncc(-c4cccc(OC5CCC(N6CC(C)OC(C)C6)CC5)c4C#N)n3n2)ccc1F [compound 195, 2-[6-(4-fluoro-3-{[(2S)-1-(1H-tetrazol-1-yl)propan-2-yl]oxy}phenyl)imidazo[1,2-b]pyridazin-3-yl]-6-{[(1r,4r)-4-[(2R,6S)-2,6-dimethylmorpholin-4-yl]cyclohexyl]oxy}benzonitrile] | < 10
C[C@@H](Cn1cnnn1)Oc1cc(-c2ccc3ncc(-c4cccn(C)c4=O)n3n2)ccc1F [compound 196] | < 10
COc1cccc(-c2cnc3ccc(-c4ccc(F)c(O[C@@H](C)Cn5cnnn5)c4)nn23)c1C#N [compound 197] | < 10
C[C@@H](Cn1cnnn1)Oc1cc(-c2ccc3ncc(-c4cccc(OCC5CCNC5=O)c4C#N)n3n2)ccc1F (stereo partly shown) [compound 198] | < 10
C[C@@H](Cn1cnnn1)Oc1cc(-c2ccc3ncc(-c4cccc(OCC5CNC(=O)C5)c4C#N)n3n2)ccc1F (stereo partly shown) [compound 199] | < 10
C[C@@H](Cn1cnnn1)Oc1cc(-c2ccc3ncc(-c4cccc(OCC5CCC(=O)N5)c4C#N)n3n2)ccc1F (stereo partly shown) [compound 200] | < 10
C[C@@H](Cn1cnnn1)Oc1cc(-c2ccc3ncc(-c4cccc(OCC5CCN(C)C5)c4C#N)n3n2)ccc1F (stereo partly shown) [compound 201] | < 10
C[C@@H](Cn1cnnn1)Oc1cc(-c2ccc3ncc(-c4cccc(OCC(N)=O)c4C#N)n3n2)ccc1F [compound 202] | < 10
C[C@@H](Cn1cnnn1)Oc1cc(-c2ccc3ncc(-c4cccc(OCC5CCOCC5)c4C#N)n3n2)ccc1F [compound 203] | < 10
